Assay results from patent publication US20210038607A1, “OXADIAZOLYLTHIOPHENE DERIVATIVES USEFUL AS HISTONE DEACETYLASE INHIBITORS” (Karus Therapeutics Limited, priority 2018, published 2021).

Columns and labels:
[1] = molecular target: T1, Human HDAC7 (Homo sapiens, UniProt Q8WUI4); test: HDAC7 biochemical assay, class IIa-specific substrate; conditions: read-out: HDAC Isoform IC50 (nM) 7
T1 construct: (a.a. 518-end) with N-terminal GST tag; GST (N); host or cells: baculovirus expression system
T1 sequence (Q8WUI4 518-952 limits assumed): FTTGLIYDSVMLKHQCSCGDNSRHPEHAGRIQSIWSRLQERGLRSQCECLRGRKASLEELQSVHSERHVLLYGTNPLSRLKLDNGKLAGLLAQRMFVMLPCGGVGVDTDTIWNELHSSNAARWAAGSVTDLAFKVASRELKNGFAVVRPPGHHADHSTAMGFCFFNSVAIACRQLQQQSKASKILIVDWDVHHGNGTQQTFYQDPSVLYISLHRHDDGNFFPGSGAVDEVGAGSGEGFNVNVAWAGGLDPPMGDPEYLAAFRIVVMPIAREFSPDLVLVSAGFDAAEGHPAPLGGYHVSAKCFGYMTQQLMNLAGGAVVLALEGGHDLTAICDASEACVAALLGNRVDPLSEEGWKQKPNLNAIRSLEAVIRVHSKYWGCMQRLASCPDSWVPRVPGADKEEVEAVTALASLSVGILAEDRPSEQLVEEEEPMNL
Procedure, shortened: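 GST-tagged HDAC7 (a.a. 518-end, baculovirus-expressed) at 0.001 ng/ul with 50 μM Boc-Lys(trifluoroacetyl)-AMC substrate, 30 min at room temperature in pH 8.0 Tris buffer with BSA, 1% DMSO final. Developer then releases AMC; fluorescence read at 360/460 nm.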

[2] = test system: acetylated α-tubulin in A549 lung adenocarcinoma cells; test: Acetylated α-tubulin in-cell western (ICW) assay; assay type: cell-based; conditions: Homo sapiens, 16 h exposure, relative to 40 μM scriptaid positive control, read-out: EC50 Ac-α-tubulin, A549 cells
Description: (§1) Acetylated α-Tubulin and Histone H3 in-Cell Western (ICW) Assays
(§2) A549 cells were maintained in DMEM (Life Technologies)+10% FBS+2 mM glutamine & penicillin (10 μg/mL) and streptomycin ([…]. 10,000 A549 cells per well were plated into 96 well tissue culture plates (Corning) and incubated at 37° C. overnight in a humidified atmosphere containing 5% CO2 prior to addition of compounds. Compounds (dissolved in 100% DMSO) were diluted into cell culture media at 2× final assay concentration. 2× compound or DMSO (negative control) were added to cells (final DMSO concentration 0.4%). Untreated control wells received media. For acetylated α-tubulin assays, 40 μM scriptaid was used as a positive control. For acetylated histone H3 assays, 40 μM Trichostatin A (TSA) was used as a positive control. Cells were exposed to compound at 37° C. in a humidified atmosphere containing 5% CO2 for 16 h.
(§3) Measurement of the impact of compounds on levels of acetylated α-tubulin and histone H3 was performed using specific antibodies and near-infrared immunofluorescent dyes. Briefly, media was removed from wells of assay plates. Cells were washed once with PBS and fixed in 3.7% formaldehyde PBS solution at room temperature for 20 min. Cells were then permeabilised by washing 5 times in 0.1% triton-X-100 PBS at room temperature with gentle agitation for 5 min per wash. Non-specific antibody staining was blocked by the addition of Odyssey blocking buffer (Li-Cor) for 1.5 h at room temperature with gentle agitation. Cells were then incubated with primary antibody (mouse monoclonal anti-acetylated α-tubulin (clone 6-11B-1), Sigma or rabbit polyclonal anti-acetylated histone H3, Millipore) diluted in Odyssey blocking buffer at 4° C. with gentle shaking overnight (no antibody control and secondary antibody only wells were incubated with Odyssey blocking buffer only). Cells were washed five times with 0.1% tween PBS and labelled with secondary antibody (IR dye 800CW-conjugated goat anti mouse IgG or -goat anti rabbit IgG, Li-Cor) and cell stains Sapphire700 (Li-Cor) and Draq5 (Biostatus) diluted in Odyssey blocking buffer at room temperature in the dark with gentle shaking for 1 h (no antibody control wells were incubated with Odyssey blocking buffer only and secondary antibody only with diluted secondary antibody but no cell stains). Cells were washed with 0.1% Tween PBS five times and scanned using a Li-Cor Odyssey SA plate reader in 700 and 800 nm channels. Acetylated α-tubulin or histone H3 signal was normalised to cell number using the cell stain signal. Percentage increase in acetylated α-tubulin or histone H3 after compound treatment over the mean of DMSO treated controls, relative to scriptaid and TSA positive controls, respectively was calculated. EC50 values were calculated using GraphPad Prism software and nonlinear regression with 0% bottom and 100% top constraints.

[3] = molecular target: T2, Human HDAC1 (Homo sapiens, UniProt Q13547); test: HDAC1 biochemical assay, AMC-labeled peptide substrate; conditions: read-out: HDAC Isoform IC50 (nM) 1
T2 construct: full length with C-terminal His-tag and C-terminal FLAG-tag; His (C); FLAG (C); host or cells: baculovirus expression system
T2 sequence (Q13547 whole entry, canonical isoform): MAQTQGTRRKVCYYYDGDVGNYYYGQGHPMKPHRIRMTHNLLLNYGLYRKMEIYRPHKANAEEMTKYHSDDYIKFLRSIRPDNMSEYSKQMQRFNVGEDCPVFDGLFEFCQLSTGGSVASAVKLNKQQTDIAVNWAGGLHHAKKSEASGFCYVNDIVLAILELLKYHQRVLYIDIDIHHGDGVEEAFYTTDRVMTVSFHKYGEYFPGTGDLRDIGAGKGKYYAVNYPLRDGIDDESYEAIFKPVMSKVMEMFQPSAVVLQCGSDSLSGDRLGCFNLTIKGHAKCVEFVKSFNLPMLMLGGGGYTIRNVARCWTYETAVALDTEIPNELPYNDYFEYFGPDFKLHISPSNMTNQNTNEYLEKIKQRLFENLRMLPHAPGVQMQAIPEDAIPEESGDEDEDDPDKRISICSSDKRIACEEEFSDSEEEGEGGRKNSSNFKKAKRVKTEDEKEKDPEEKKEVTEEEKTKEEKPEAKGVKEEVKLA
Procedure, shortened: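 Baculovirus-expressed full-length human HDAC1 with His and FLAG tags, 0.3 ng/ul, incubated 1 h at 30° C with compound and 50 μM RHKK(Ac)AMC in Tris pH 8.0 buffer with BSA and 1% DMSO. Developer then releases AMC from deacetylated substrate; fluorescence read at 360/460 nm.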

[4] = test system: acetylated histone H3 in A549 lung adenocarcinoma cells; test: Acetylated histone H3 in-cell western (ICW) assay; assay type: cell-based; conditions: Homo sapiens, 16 h exposure, relative to 40 μM Trichostatin A positive control, read-out: EC50 Ac-histone H3, A549 cells
Description: as §1, §2, §3

Row | IC50 [1] | EC50 [2] | IC50 [3] | EC50 [4] | SMILES
1 | ≤ 10000 nM | ≤ 1000 nM | > 10000 nM | ≥ 10 µM | COC1CN(Cc2ccnc(N(Cc3ccc(-c4noc(C(F)(F)F)n4)s3)c3cnccn3)c2)C1 [Example GH, N-{4-[(3-Methoxyazetidin-1-yl)methyl]pyridin-2-yl}-N-({5-[5-(trifluoromethyl)-1,2,4-oxadiazol-3-yl]thiophen-2-yl}methyl)pyrazin-2-amine]
2 | ≤ 10000 nM | ≤ 1000 nM | > 10000 nM | ≥ 10 µM | N#Cc1cnnc(N(Cc2ccc(-c3noc(C(F)(F)F)n3)s2)c2cnccn2)c1 [Example EE, 6-[(Pyrazin-2-yl)({5-[5-(trifluoromethyl)-1,2,4-oxadiazol-3-yl]thiophen-2-yl}methyl)amino]pyridazine-4-carbonitrile]
3 | ≤ 500 nM | ≤ 1000 nM | ≤ 10000 nM | ≥ 10 µM | CNC(=O)c1ccc(N(Cc2ccc(-c3noc(C(F)(F)F)n3)s2)c2cnccn2)nn1 [Example FC, N-Methyl-6-[(pyrazin-2-yl)({5-[5-(trifluoromethyl)-1,2,4-oxadiazol-3-yl]thiophen-2-yl}methyl)amino]pyridazine-3-carboxamide]
4 | ≤ 10000 nM | ≥ 10000 nM | > 10000 nM | ≥ 10 µM | O=C(O)c1cnnc(N(Cc2ccc(-c3noc(C(F)(F)F)n3)s2)c2cnccn2)c1 [Example DW, 6-[(Pyrazin-2-yl)({5-[5-(trifluoromethyl)-1,2,4-oxadiazol-3-yl]thiophen-2-yl}methyl)amino]pyridazine-4-carboxylic acid]
5 | ≤ 1000 nM | ≤ 1000 nM | > 10000 nM | ≥ 10 µM | FC(F)(F)c1nc(-c2ccc(CN(c3cnccn3)c3cnccn3)s2)no1 [Example BA, N-(Pyrazin-2-yl)-N-({5-[5-(trifluoromethyl)-1,2,4-oxadiazol-3-yl]thiophen-2-yl}methyl)pyrazin-2-amine]
6 | ≤ 500 nM | ≤ 1000 nM | ≤ 10000 nM | ≥ 10 µM | O=C(c1ccc(N(Cc2ccc(-c3noc(C(F)(F)F)n3)s2)c2cnccn2)nn1)N1CCC1 [Example FF, 6-(Azetidine-1-carbonyl)-N-(pyrazin-2-yl)-N-({5-[5-(trifluoromethyl)-1,2,4-oxadiazol-3-yl]thiophen-2-yl}methyl)pyridazin-3-amine]
7 | ≤ 500 nM | ≤ 1000 nM | > 10000 nM | ≥ 10 µM | CNC(=O)c1cnnc(N(Cc2ccc(-c3noc(C(F)(F)F)n3)s2)c2cnccn2)c1 [Example DY, N-Methyl-6-[(pyrazin-2-yl)({5-[5-(trifluoromethyl)-1,2,4-oxadiazol-3-yl]thiophen-2-yl}methyl)amino]pyridazine-4-carboxamide]

Continued, compound first:

Row | SMILES | IC50 [1] | EC50 [2] | IC50 [3] | EC50 [4]
8 | COC1CN(C(=O)c2cnnc(N(Cc3ccc(-c4noc(C(F)(F)F)n4)s3)c3cnccn3)c2)C1 [Example DZ, 5-(3-Methoxyazetidine-1-carbonyl)-N-(pyrazin-2-yl)-N-({5-[5-(trifluoromethyl)-1,2,4-oxadiazol-3-yl]thiophen-2-yl}methyl)pyridazin-3-amine] | ≤ 1000 nM | ≤ 1000 nM | > 10000 nM | ≥ 10 µM
9 | O=C(c1cnnc(N(Cc2ccc(-c3noc(C(F)(F)F)n3)s2)c2cnccn2)c1)N1CCC12COC2 [Example GF, 5-{6-Oxa-1-azaspiro[3.3]heptane-1-carbonyl}-N-(pyrazin-2-yl)-N-({5-[5-(trifluoromethyl)-1,2,4-oxadiazol-3-yl]thiophen-2-yl}methyl)pyridazin-3-amine] | ≤ 10000 nM | ≤ 1000 nM | > 10000 nM | ≥ 10 µM
10 | O=C(c1cnnc(N(Cc2ccc(-c3noc(C(F)(F)F)n3)s2)c2cnccn2)c1)N1CC[S+]([O-])CC1 [Example FU, 4-{6-[(Pyrazin-2-yl)({5-[5-(trifluoromethyl)-1,2,4-oxadiazol-3-yl]thiophen-2-yl}methyl)amino]pyridazine-4-carbonyl}-1lambda4-thiomorpholin-1-one] | ≤ 10000 nM | ≤ 1000 nM | > 10000 nM | ≥ 10 µM
11 | O=C(c1ccc(N(Cc2ccc(-c3noc(C(F)(F)F)n3)s2)c2cnccn2)nn1)N1C[C@@H]2C[C@H]1CO2 [Example FE, 6-[(1S,4S)-2-Oxa-5-azabicyclo[2.2.1]heptane-5-carbonyl]-N-(pyrazin-2-yl)-N-({5-[5-(trifluoromethyl)-1,2,4-oxadiazol-3-yl]thiophen-2-yl}methyl)pyridazin-3-amine] | ≤ 500 nM | 1000 to 10000 nM | > 10000 nM | ≥ 10 µM
12 | O=C(c1ccc(N(Cc2ccc(-c3noc(C(F)(F)F)n3)s2)c2cnccn2)nn1)N1CCC2(COC2)C1 [Example FJ, 6-{2-Oxa-6-azaspiro[3.4]octane-6-carbonyl}-N-(pyrazin-2-yl)-N-({5-[5-(trifluoromethyl)-1,2,4-oxadiazol-3-yl]thiophen-2-yl}methyl)pyridazin-3-amine] | ≤ 500 nM | ≤ 1000 nM | ≤ 10000 nM | ≥ 10 µM
13 | O=C(c1cnnc(N(Cc2ccc(-c3noc(C(F)(F)F)n3)s2)c2cnccn2)c1)N1CCS(=O)(=O)CC1 [Example ED, 4-{6-[(Pyrazin-2-yl)({5-[5-(trifluoromethyl)-1,2,4-oxadiazol-3-yl]thiophen-2-yl}methyl)amino]pyridazine-4-carbonyl}-1λ^6-thiomorpholine-1,1-dione] | ≤ 10000 nM | ≤ 1000 nM | > 10000 nM | ≥ 10 µM
14 | FC(F)(F)c1cnnc(N(Cc2ccc(-c3noc(C(F)(F)F)n3)s2)c2cc(C(F)(F)F)cnn2)c1 [Example EU, 5-(Trifluoromethyl)-N-({5-[5-(trifluoromethyl)-1,2,4-oxadiazol-3-yl]thiophen-2-yl}methyl)-N-[5-(trifluoromethyl)pyridazin-3-yl]pyridazin-3-amine] | ≤ 10000 nM | ≤ 1000 nM | > 10000 nM | ≥ 10 µM
15 | O=C(c1ccc(N(Cc2ccc(-c3noc(C(F)(F)F)n3)s2)c2cnccn2)nn1)N1CCOCC1 [Example DS, 6-(Morpholine-4-carbonyl)-N-(pyrazin-2-yl)-N-({5-[5-(trifluoromethyl)-1,2,4-oxadiazol-3-yl]thiophen-2-yl}methyl)pyridazin-3-amine] | ≤ 500 nM | ≤ 1000 nM | > 10000 nM | ≥ 10 µM
16 | CN1CCN(C(=O)c2cnnc(N(Cc3ccc(-c4noc(C(F)(F)F)n4)s3)c3cnccn3)c2)CC1 [Example EC, 5-(4-Methylpiperazine-1-carbonyl)-N-(pyrazin-2-yl)-N-({5-[5-(trifluoromethyl)-1,2,4-oxadiazol-3-yl]thiophen-2-yl}methyl)pyridazin-3-amine] | ≤ 1000 nM | ≤ 1000 nM | > 10000 nM | ≥ 10 µM
